Data: patent publication US6465527B1, “Iodinated hydrocarbon pesticide” (priority 1999, dated 2002)
Where two headings read alike, the source gives them in different places.

Assays:
Type in all cases: in vivo
[1] = tested on: American cockroach, Periplaneta americana (L.); assay: Fumigant toxicity in sealed glass jar, American cockroach; details: 8-36 adult males; for mortality at 50 µL/jar: Periplaneta americana, inhaled or nasal
Method: (§1) As shown below, Table 1 depicts the toxicity of both monoiodinated and diiodinated hydrocarbons to both the German and the American cockroach after 1 hour of exposure.
(§2) Shown in Table 2 is the toxicity of both monoiodinated and diiodinated hydrocarbons to the German and American cockroach and the Cowpea weevil after 24 hours of exposure.
(§3) In this experiment both the insecticidal and nematicidal properties of iodinated hydrocarbons were compared. In determining the insecticidal properties of the iodinated hydrocarbons, both American (Periplaneta americana) and German (Blattella germanica) cockroaches were used. Groups of cockroaches were confined in 0.95-liter glass jars with a small cotton ball. Exactly 50 μl of a test chemical was applied to the cotton ball and the jar was sealed. Knockdown, defined as the inability to walk in a coordinated manner, and mortality were assessed every 15 minutes for the first hour and hourly thereafter for 8 hours and again after 24 hours.

[2] = tested on: Cowpea weevil, Callosobruchus maculatus (F.); assay: Fumigant toxicity, Cowpea weevil; parameters: concentration or dose not given beside the values; details: 30 adults
Method: as §2

[3] = tested on: American (Periplaneta americana) and German (Blattella germanica) cockroaches; assay: Knockdown and mortality of cockroaches in sealed jar (both species); details: for Sensitivity of American cockroaches compared with German cockroaches: in vivo; for Knockdown of cockroaches: within 1 hour after treatment, 50 μl on cotton ball in sealed 0.95-liter jar
Method: as §3, with “sealed.” for “sealed. Knockdown, defined as the inability to walk in a coordinated manner, and mortality were assessed every 15 minutes for the first hour and hourly thereafter for 8 hours and again after 24 hours.”

[4] = tested on: Meloidogyne arenaria; assay: Greenhouse nematicide test, diiodinated C2-C8 hydrocarbons in infested field soil (Experiments 1 and 2); details: for M. arenaria J2 populations in preplant samples: rates ≧5.0 mg
Method: (§4) Additionally, the nematicidal properties of iodinated hydrocarbons were investigated in greenhouse experiments with field soil infested with Meloidogyne arenaria and Heterodera Glycines. Chemicals were added directly to infested solid at rates <100 mg/Kg soil. Treated soil was kept moist (approximately 60 percent field capacity) and uncovered for 7-10 days when samples were collected, and the pots were planted with ‘Brim’ soybean, Glycine max. […] 1,2-diiodoethane (C2), 1,3-diiodopropane (C3), 1,4-diiodobutane (C4), 1,5-diiodopentane (C5), 1,6-diiodohexane (C6), and […] were applied to soil rates of 2.5, 5.0, 7.5, and 10 mg/Kg soil. All rates of C2 and C8 were ineffective in reducing M. arenaria juvenile (J2) populations in preplant samples. This was also true for C2 and J2 populations of H. glycines; however, […] rates ≧5.0 mg suppressed J2 populations of H. glycines. […] H. glycines J2 numbers in final soil samples were generally inversely related to rates for C3-C8. […] Applications of C3-C6 to soil increased shoot weights in a manner directly related to dosages but only in a curvilinear pattern.
(§5) In this experiment, the nematicidal properties of various diiodinated hydrocarbons were compared. The nematicidal properties of diiodinated C2-C8 normal hydrocarbons was assessed in a greenhouse experiment with field soil infested with Meloidogyne arenaria [Ma] and Heterodera glycines [Hg]. 1,2-diiodoethane [C2], 1,3-diiodopropane [C3], 1,4-diiodobutane [C4], 1.5-diiodopentane [C5], 1,6-diiodohexane [C6] and 1,8-diiodooctane [C8] were applied to soil at rates of 2.5, 5.0, 7.5, and 10.0 mgs/kg soil. The potted soil was kept moist in a greenhouse for 10 days when preplant samples were collected for analysis, and the pots were planted with ‘Brim’ soybean [Glycine max]. After 7 weeks of growth, the plants were removed and final soil samples taken. Data was collected on weights of fresh roots and shoots, root galling by Ma, and numbers of nematodes in soil and roots. All rates of C2 and C8 were ineffective in reducing Ma juvenile [J2] populations in the preplant samples. This was also true for C2 and J2 populations of Hg; however, C8 rates ≧5.0 mg suppressed J2 populations of Hg. […] Hg J2 numbers in final soil samples were generally inversely related to rates for C3-C8. This pattern of suppression in J2 numbers was also applicable to Ma in the final soil samples but only for C3-C6. […] Applications of C3-C6 to soil increased shoot weights in a manner directly related to dosages but non-linear in pattern.

[5] = tested on: Heterodera glycines; assay: as above; details: rates ≧5.0 mg
Method: as §4, §5

[6] = tested on: German cockroach, Blattella germanica (L.); assay: Fumigant toxicity in sealed glass jar, German cockroach; details: 30-60 adult males; for mortality at 50 µL/jar: Blattella germanica, inhaled or nasal
Method: as §1, §2, §3

[7] = tested on: 'Brim' soybean [Glycine max]; assay: Soybean growth in treated soil (Experiments 1 and 2)
Method: as §4, §5

[8] = tested on: cyst [Heterodera glycines]; assay: Greenhouse nematicide test, iodinated C1-C3 hydrocarbons (Experiment 4); details: 10 days after application; all dosages (0.1, 0.2, 0.4 ml/kg soil)
Method: (§6) In this experiment, the nematicidal properties of low molecular weight iodinated hydrocarbons were investigated. The nematicidal properties of iodinated C1-C3 hydrocarbons were evaluated in greenhouse experiments with field soil infested with root-knot [Meloidogyne arenaria] and cyst [Heterodera glycines] nematodes. lodomethane, di-iodomethane, iodoethane, di-iodoethane, and 1-iodopropane were added to soil at rates of 0.1, 0.2 and 0.4 ml/kg soil.
(§7) The treated soil was kept moist for 10 days when soil samples were taken for nematode analysis and ‘Brim’ soybean [Glycine max] planted. Soybeans were allowed to grow for 8 weeks and then were removed from the soil to determine plant growth, root-knot indices and the number of galls generated by M arenaria. […] All compounds except 1-iodopropane increased fresh shoot weight when applied at ≧0.1 ml/kg soil.

[9] = tested on: root-knot [Meloidogyne arenaria]; assay: as above; details: for M. arenaria [J2] juvenile populations in soil: 10 days after application, all rates (0.1, 0.2, 0.4 ml/kg soil)
Method: as §6, §7

[10] = 1 h exposure, read-out: % Mortality after 1 h exposure, American cockroach
[11] = 24 h exposure, read-out: % Mortality after 24 h exposure, American cockroach
[12] = 1 h exposure, read-out: % Mortality after 1 h exposure, German cockroach
[13] = 24 h exposure, read-out: % Mortality after 24 h exposure, German cockroach

Row | Structure (SMILES) | mortality at 50 µL/jar [1, 10] [%] | mortality at 50 µL/jar [1, 11] [%] | % Mortality after 24 h exposure, Cowpea weevil [2] [%] | Sensitivity of American cockroaches compared with German cockroaches [3] | M. arenaria J2 populations in preplant samples [4] | H. glycines J2 populations in preplant samples [5] | mortality at 50 µL/jar [6, 12] [%] | mortality at 50 µL/jar [6, 13] [%] | H. glycines J2 populations in soil [8] | Knockdown of cockroaches [3] [%] | other results
1 | ICCCCCI [1,5-diiodopentane] | 11 | 0 | 37 | more sensitive | virtually eliminated | virtually eliminated | 0 | 0 |  |  | 
2 | ICCCCCCI [1,6-diodohexane, 1,6-diiodohexane] | 5 | 0 | 0 | more sensitive | virtually eliminated | virtually eliminated | 0 | 0 |  |  | 
3 | ICCCCCCCCI [1,8-diiodooctane] | 0 | 0 | 0 |  |  | suppressed | 0 | 0 |  |  | M. arenaria juvenile (J2) populations in preplant samples ([4]; all rates (2.5, 5.0, 7.5, 10 mg/Kg soil)): ineffective; M. arenaria J2 numbers in final soil samples ([4]; final soil samples after soybean growth, rates 2.5-10 mg/kg soil): did not change significantly; Shoot weights of soybean ([7]; 2.5 mg rate): increased shoot weights slightly; Shoot weights of soybean ([7]; rates higher than 2.5 mg): no significant effect
4 | CCCI [1-iodopropane] |  |  | 97 |  |  |  |  |  | ineffective | 100 | % Mortality after 1 h exposure, American cockroach ([1]; 1 h exposure): 100%; % Mortality after 24 h exposure, American cockroach ([1]; 24 h exposure): 100%; M. arenaria [J2] juvenile populations in soil ([9]; listed as 1 iodopropane): ineffective; M. arenaria [J2] juvenile populations in soil ([9]; listed as iodopropane): increased directly; Root galling (root knot) by M. arenaria ([9]; soybean after 8 weeks, rates 0.1-0.4 ml/kg soil): no significant effect; % Mortality after 1 h exposure, German cockroach ([6]; 1 h exposure): 100%; % Mortality after 24 h exposure, German cockroach ([6]; 24 h exposure): 100%
5 | CCI [iodoethane] | 100 | 100 | 100 |  |  |  | 100 | 100 | ineffective | 100 | M. arenaria [J2] juvenile populations in soil [9]: ineffective; Gall formation by M. arenaria ([9]; applied at ≧0.2 ml/kg soil): Significant suppression
6 | IC(I)=C(I)I [tetraiodoethylene] | 0 | 0 | 0 |  |  |  | 0 | 3 |  |  | 
